Marks after values point to notes of the source that are not given here.
Key:
anti-collagen IgG1 = assay: CIA model: rat anti-collagen IgG1 levels; type: in vivo, Lewis rats; parameters: Average rat anti-collagen IgG1 levels, Mean: unit not given here; conditions: Group 3 (CIA + Dexamethasone)
[1] = tested on: collagen-induced arthritis; conditions: for animals with weight gain at end of study / diarrhea over the 21-day period / increase in body weight, day 21 vs day 0: rat, in vivo; for increase in body weight, day 21 vs day 0: po; for control of hind paw volume: reference treatments vs CIA+vehicle (group 2)
Procedure: (§1) The emulsion was cooled in an ice water bath during the formulation. The final concentration of collagen was 1 mg/mL. The emulsion is prepared fresh immediately prior to injection.
as §1
Experimental groups for the study are outlined in Table 5A. […] Animals in group one received no immunization.
IHC markers for staining were selected after evaluating clinical and histopathological scores for animals. After the skin was removed, the right hind limb was snap frozen in liquid nitrogen and RNA and protein analysis was performed.
Blood samples were collected from animals in groups 1-7 via cardiac puncture following euthanasia on Day 21. […] Serum was divided into two separate tubes and stored at −75±15° C. One tube was used to analyze IgG1, and the other tube was reserved for additional analyses.
H&E-stained slides of designated tissues from animals were transferred to an independent pathologist for microscopic evaluation (SPFBio). Samples were assigned the histologic grades based on the severity of change from tissue where CIA was not induced. Histology grades assigned were as follows: grade 1 (minimal change), grade 2 (mild change), grade 3 (moderate change), grade 4 (marked change), and grade 5 (severe change). A grade may be assigned for each indicator of disease severity: inflammation, mixed cell; granulation tissue; increased bone, periosteum; increased eroded surface, bone and erosion/ulcer, cartilaginous. […] Moderate inflammation was also associated with increased edema fluid, fibrin, and cellular debris. Marked mixed cell inflammation was characterized by dense, widespread accumulations of neutrophils and macrophages with lesser number of lymphocytes within one or more joint spaces, synovium and periarticular soft tissues. Marked inflammation was also associated with abundant edema fluid, fibrin, and cellular debris.
Marked granulation tissue (pannus) was associated with inflammation and was characterized by widespread fibrovascular connective tissue that expanded/replaced the periarticular soft tissues of one or more joints, extended into/expanded joint spaces, was contiguous with areas of erosion/ulcer in articular cartilage and/or increased eroded surface of bone, and variably extended along the diaphysis.
Marked increased periosteal bone (periosteal bone formation) was characterized by extensive areas of increased bone matrix and numerous prominent osteoblasts lining trabecular surfaces along the metaphysis and/or diaphysis of one or more bones.

[2] = tested on: collagen-induced arthritis; assay: CIA model: histopathologic analysis of hind limbs; type: in vivo, Lewis rats; conditions: for Pathologic observations after microscopic evaluation: Group 3 (CIA + Dexamethasone); for Erosion/Ulcer, cartilaginous, Marked (number of animals) / Erosion/Ulcer, cartilaginous, Mild (number of animals) / Erosion/Ulcer, cartilaginous, Minimal (number of animals) / Erosion/Ulcer, cartilaginous, Moderate (number of animals) / Granulation tissue, Marked (number of animals) / Granulation tissue, Mild (number of animals) / Granulation tissue, Minimal (number of animals) / Granulation tissue, Moderate (number of animals) / Increased bone, periosteum, Marked (number of animals) / Increased bone, periosteum, Mild (number of animals) / Increased bone, periosteum, Minimal (number of animals) / Increased bone, periosteum, Moderate (number of animals) / Increased eroded surface, bone, Marked (number of animals) / Increased eroded surface, bone, Mild (number of animals) / Increased eroded surface, bone, Minimal (number of animals) / Increased eroded surface, bone, Moderate (number of animals) / Mixed cell inflammation, Marked (number of animals) / Mixed cell inflammation, Mild (number of animals) / Mixed cell inflammation, Minimal (number of animals) / Mixed cell inflammation, Moderate (number of animals) / No Visible Lesions (number of animals): hind limbs, CIA induced, 8 animals examined, comparator, dose not given
From the text: Mean histopathologic scores for tissue samples from animals in Groups 1-6 are depicted in FIG. 22A, and day 21 histology scores for all animals are illustrated in FIG. 22B.

SMILES	animals with weight gain at end of study [1]	diarrhea over the 21-day period [1]	increase in body weight, day 21 vs day 0 [1] [%]	control of hind paw volume [1]	Erosion/Ulcer, cartilaginous, Marked (number of animals) [2]	Erosion/Ulcer, cartilaginous, Mild (number of animals) [2]	Erosion/Ulcer, cartilaginous, Minimal (number of animals) [2]	Erosion/Ulcer, cartilaginous, Moderate (number of animals) [2]	Granulation tissue, Marked (number of animals) [2]	Granulation tissue, Mild (number of animals) [2]	Granulation tissue, Minimal (number of animals) [2]	Granulation tissue, Moderate (number of animals) [2]	Increased bone, periosteum, Marked (number of animals) [2]	Increased bone, periosteum, Mild (number of animals) [2]	Increased bone, periosteum, Minimal (number of animals) [2]	Increased bone, periosteum, Moderate (number of animals) [2]	Increased eroded surface, bone, Marked (number of animals) [2]	Increased eroded surface, bone, Mild (number of animals) [2]	Increased eroded surface, bone, Minimal (number of animals) [2]	Increased eroded surface, bone, Moderate (number of animals) [2]	further results
C[C@@H]1C[C@H]2[C@@H]3CCC4=CC(=O)C=C[C@]4(C)[C@@]3(F)[C@@H](O)C[C@]2(C)[C@@]1(O)C(=O)CO [Dexamethasone, dexamethasone]	4/8	did not have diarrhea	1.3	effective at controlling paw volume	0	0	0	0	0	0	0	0	0	0	0	0	0	0	0	0	Average rat anti-collagen IgG1 levels, Mean (anti-collagen IgG1): 7833.69*; average overall clinical score at plateau ([1]; reference treatments (groups 3 and 4), around day 18): never exhibited any signs of disease; Pathologic observations after microscopic evaluation [2]: no histopathological observations noted; Pathologic observations after microscopic evaluation ([2]; listed as dexamethasone): No pathologic observations; Mixed cell inflammation, Marked (number of animals) [2]: 0; Mixed cell inflammation, Mild (number of animals) [2]: 0; Mixed cell inflammation, Minimal (number of animals) [2]: 0; Mixed cell inflammation, Moderate (number of animals) [2]: 0; No Visible Lesions (number of animals) [2]: 8
CNC(=O)c1cc(C(=O)NC2CC2)cn(Cc2ccccc2)c1=O [GSK620]	4/8	did not have diarrhea	0.8	failed to prevent an increase in paw volume	0	6	0	2	0	4	0	4	0	6	0	2	0	4	1	3	animals exhibiting disease ([1]; group 4, day 18): all animals; Erosion/ulcer in articular cartilage, grade ([2]; Group 4 (CIA + GSK620)): mild and mild to moderate; Granulation tissue (pannus), grade ([2]; Group 4 (CIA + GSK620)): mild and mild to moderate; Increased eroded surface of bone (bone resorption), grade ([2]; Group 4 (CIA + GSK620)): mild and minimal to moderate; Increased periosteal bone (periosteal bone formation), grade ([2]; Group 4 (CIA + GSK620)): mild and mild to moderate; Mixed cell inflammation, grade ([2]; Group 4 (CIA + GSK620)): moderate; Mixed cell inflammation, Marked (number of animals) [2]: 0; Mixed cell inflammation, Mild (number of animals) [2]: 0; Mixed cell inflammation, Minimal (number of animals) [2]: 0; Mixed cell inflammation, Moderate (number of animals) [2]: 8; No Visible Lesions (number of animals) [2]: 0
